Counter-ions that a name gives are not always drawn.

One may read the inhibition as the drop in the measured response relative to a control, in per cent. Lower therefore signals little suppression.

For the test, the target named is T1, thromboxane synthetase (Rattus norvegicus, UniProt P49430).
T1 construct: The platelets were isolated by centrifuging the PRP for 10 minutes at 1060xg; from tissue; host or cells: washed blood platelets from Okamoto-Aoki spontaneously hypertensive rats (SHR)
T1 sequence (P49430 1-533): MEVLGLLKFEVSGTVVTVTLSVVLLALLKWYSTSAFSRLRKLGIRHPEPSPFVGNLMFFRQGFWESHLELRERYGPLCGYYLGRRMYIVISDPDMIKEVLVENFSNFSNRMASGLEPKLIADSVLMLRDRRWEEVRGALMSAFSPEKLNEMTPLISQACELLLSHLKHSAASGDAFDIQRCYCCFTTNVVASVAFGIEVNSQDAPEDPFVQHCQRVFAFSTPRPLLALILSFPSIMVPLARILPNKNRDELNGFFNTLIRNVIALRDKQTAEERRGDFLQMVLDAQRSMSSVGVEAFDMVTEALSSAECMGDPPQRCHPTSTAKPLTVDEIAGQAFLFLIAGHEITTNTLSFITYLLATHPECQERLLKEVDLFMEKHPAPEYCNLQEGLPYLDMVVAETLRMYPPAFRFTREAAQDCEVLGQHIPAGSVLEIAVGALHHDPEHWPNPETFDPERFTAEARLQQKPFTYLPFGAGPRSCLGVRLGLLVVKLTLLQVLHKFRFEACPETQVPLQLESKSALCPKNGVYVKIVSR
Description: Inhibition of thromboxane (TX) formation (TXB2 radioimmunoassay) in washed rat platelets. It counts as cell-based, Okamoto-Aoki spontaneously hypertensive rats (SHR). Conditions: percent inhibition of TXB2 formation; drug at 10^-4M; SHR platelet suspension, 10 minutes at 37 C. An excerpt:
The platelet rich plasma (PRP) was separated. […] The inhibition of thromboxane (TX) formation was studied by determing the concentration of thromboxane […] (TXB2), the stable hydrolysis product of TXA2.
In the case of `Cc1cn(CCCn2cnc3ccccc3c2=O)cn1` [Example 133, 3-[3-(4-Methyl-1H-imidazol-1-yl)propyl]-4(3H)-quinazolinone], the inhibition at 100 µM is 74%. Molecule `O=c1c2cc(Br)ccc2ncn1CCCCc1cccnc1` [6-Bromo-3-[4-(3-pyridyl)butyl]-4(3H)-quinazolinone] yielded an inhibition at 100 µM of 99%.

Molecule `O=c1[nH]c2c(Cl)cc(Cl)cc2c(=O)n1CCCCn1ccnc1` [Example 46, 6,8-Dichloro-3-[4-(1H-imidazol-1-yl)-butyl]-2,4(1H,3H)-quinazolinedione] had an inhibition at 100 µM of 89%. Molecule `O=c1c2cccc(C(F)(F)F)c2nnn1CCCCn1ccnc1` [Example 94, 3-[4-(1H-Imida-zol-1-yl)butyl]-8-trifluoro-methyl-1,2,3-benzotriazin-4(3H)-one] yielded an inhibition at 100 µM of 86%. Molecule `O=c1[nH]c2ccccc2c(=O)n1CCCCc1cccnc1` [Example 22, 3-[4-(3-Pyridinyl)butyl]-2,4(1H,3H)-quinazolinedione] yielded an inhibition at 100 µM of 99%. For `Cc1ccc2nnn(CC(C)Cn3ccnc3)c(=O)c2c1` (centres unmarked) [Example 85, 3-[3-(1H-Imidazol-1-yl)-2-methyl-propyl]-6-methyl-1,2,3-benzo-triazin-4(3H)-one, monohydro-chloride] the value was 95%. `O=c1c2ccc(Cl)cc2nnn1CCCCn1ccnc1` [Example 80, 7-Chloro-3-[4-(1H-imidazol-1-yl)-butyl]-1,2,3-benzotriazin-4(3H)-one]: 100 µM produced 90% inhibition. For `CC(Cn1ccnc1)Cn1nnc2ccc(Cl)cc2c1=O` (centres unmarked) [6-Chloro-3-[3-(1H-imidazol-1-yl)-2-methyl-propyl]-1,2,3-benzotriazin-4(3H)-one, mono-hydrochloride] the value was 93%; for `Cc1cn(CCCn2nnc3ccc(Cl)cc3c2=O)cn1` [Example 92, 6-Chloro-3-[3-(4-methyl-1H-imida-zol-1-yl)propyl]-1,2,3-benzotria-zin-4(3H)-one], 85%; for `O=c1[nH]c2ccc([N+](=O)[O-])cc2c(=O)n1CCCn1ccnc1` [Example 15, 3-[3-(1H-Imidazol-1-yl)propyl]-6-nitro-2,4(1H,3H)-quinazolinedione], 100%.

The molecule `O=c1c2cc(Cl)ccc2ncn1CCCCc1cccnc1` [Example 142, 6-Chloro-3-[4-(3-pyridyl)butyl]-4(3H)-quinazolinone] yielded an inhibition at 100 µM of 100%.

The molecule `CC(Cn1ccnc1)Cn1cnc2ccc(Cl)cc2c1=O` (centres unmarked) [Example 141, 6-Chloro-3-[3-(1H-imidazol-1-yl)-2-methylpropyl]-4(3H)quinazolinone] yielded an inhibition at 100 µM of 94%.

The molecule `O=c1c2cc(Cl)ccc2nnn1CCCCc1cccnc1` [Example 93, 6-Chloro-3-[4-(3-pyridinyl)butyl]-1,2,3-benzotria-zin-4(3H)-one] came in with an inhibition at 100 µM of 85%. For `CC(Cn1ccnc1)Cn1c(=O)[nH]c2c(Cl)cc(Cl)cc2c1=O` (centres unmarked) [Example 48, 6,8-Dichloro-3-[3-(1H-imidazol-1-yl)-2-methylpropyl]-2,4(1H,3H)-quinazoline-dione] the value was 86%; for `O=c1[nH]c2ccc(Br)cc2c(=O)n1CCCn1ccnc1` [Example 51, 6-Bromo-3-[3-(1H-imidazol-1-yl)propyl]-2,4(1H,3H)-quinazolinedione], 100%; for `CC(Cn1ccnc1)Cn1nnc2ccccc2c1=O` (centres unmarked) [Example 78, 3-[3-(1H-Imidazol-1-yl)-2-methyl-propyl]-1,2,3-benzotriazin-4(3H)-one, monohydrochloride], 92%. For `O=c1c2cc(Cl)ccc2nnn1CCCCn1ccnc1` [6-Chloro-3-[4-(1H-imidazol-1-yl)butyl]-1,2,3-benzotriazin-4(3H)-one, monohydro-chloride] the value was 97%; for `O=c1c2cc(Cl)ccc2nnn1CCCCCCCCCCn1ccnc1` [Example 91, 6-Chloro-3-[10-(1H-imidazol-1-yl)decyl]-1,2,3-benzotriazin-4(3H)-one, fumarate], 80%; for `O=c1c2cccc(C(F)(F)F)c2nnn1CCCCCn1ccnc1` [Example 95, 3-[5-(1H-Imida-zol-1-yl)pentyl]-8-trifluoro-methyl-1,2,3-benzotriazin-4(3H)-one], 87%. Then `O=c1c2cc(Cl)ccc2ncn1CCCn1ccnc1-c1ccccc1` [Example 144, 6-Chloro-3-[3-(2-phenyl-1H-imidazol-1-yl)propyl]-4(3H)-quinazolinone, dihydro-chloride], with 96%; and `CC(CCn1c(=O)[nH]c2c(Cl)cc(Cl)cc2c1=O)n1ccnc1` (centres unmarked) [Example 47, 6,8-Dichloro-3-[3-(1H-imidazol-1-yl)-butyl]-2,4(1H,3H)-quinazolinedione], with 67%; and `O=c1c2ccccc2ncn1CCCCCCn1ccnc1` [Example 136, 3-[6-(1H-Imidazol-1-yl)hexyl]-4(3H)-quinazolinone, dihydrochloride], with 86%.

Take `CC(Cn1ccnc1)Cn1nnc2ccc(Br)cc2c1=O` (centres unmarked) [Example 83, 6-Bromo-3-[3-(1H-imidazol-1-yl)--2-methylpropyl]-1,2,3-benzo-triazin-4(3H)-one]: the inhibition at 100 µM came to 99%. For `O=c1[nH]c2ccc(Cl)cc2c(=O)n1CCCCc1cccnc1` [Example 29, 6-Chloro-3-[4-(3-pyridinyl)butyl]-2,4(1H,3H)-quinazolinedione] the value was 100%; for `O=c1c2ccccc2ncn1CCCCc1cccnc1` [Example 135, 3-[4-(3-Pyridyl)butyl]-4(3H)-quina-zolinone, dihydrochloride], 99%; for `O=c1[nH]c2ccc(Cl)cc2c(=O)n1CCCn1ccnc1-c1ccccc1` [Example 27, 6-Chloro-3-[3-(2-phenyl-1H-imidazol-1-yl)propyl]-2,4(1H,3H)-quinazolinedione], 52%.

`O=c1c2ccccc2nnn1CCCCc1cccnc1` [Example 90, 3-[4-(3-Pyridin-yl)butyl]-1,2,3-benzotriazin-4(3H)-one] came in with an inhibition at 100 µM of 75%. The molecule `O=c1c2cc(Cl)ccc2ncn1CCC(c1ccccc1)n1ccnc1` (centres unmarked) [Example 148, 6-Chloro-3-[3-(1H-imidazol-1-yl)-3-phenylpropyl]-4-(3H)-quinazolinone] had an inhibition at 100 µM of 79%. Then `CC(Cn1ccnc1)Cn1c(=O)[nH]c2c(Cl)cccc2c1=O` (centres unmarked) [Example 45, 8-Chloro-3-[3-(1H-imidazol-1-yl)-2-methylpropyl]-2,4(1H,3H)-quinazolinedione], with 71%; and `O=c1c2cc(Cl)cc(Cl)c2nnn1CCCCn1ccnc1` [Example 81, 6,8-Dichloro-3-[4-(1H-imidazol-1-yl)butyl]-1,2,3-benzotriazin-4(3H)-one, monohydrochloride], with 93%; and `O=c1[nH]c2ccc(Cl)cc2c(=O)n1CCCCCn1ccnc1` [Example 32, 6-Chloro-3-[5-(1H-imidazol-1-yl)pentyl]-2,4(1H,3H)-quinazolinedione], with 63%. Then `O=c1[nH]c2ccc(Cl)cc2c(=O)n1CCC(c1ccccc1)n1ccnc1` (centres unmarked) [Example 36, 6-Chloro-3-[3-(1H-imidazol-1-yl)-3-phenylpropyl]-2,4(1H,3H)-quinazolinedione], with 93%.

(Values after patent publication EP0293500A1, “3-heteroalkyl-2,4.quinzaoline-diones” (AMERICAN CYANAMID COMPANY, priority 1987, dated 1988).)
